According to paper PMC9698483, “Berbamine Reduces Chloroquine-Induced Itch in Mice through Inhibition of MrgprX1” (International Journal of Molecular Sciences, 2022):

Assays:
[1] = target: T1, histamine H1 receptor (H1R) (Homo sapiens, UniProt P35367); test: Histamine-induced activation of H1R in H1R-expressing HEK293T cells (calcium); assay type: cell-based; conditions: 30 μM compound, 10 min prior to 100 μM histamine
T1 construct: expressed in transfected cells; host or cells: HEK293T
Method: (§1) To investigate the effect of berbamine on other pruritogenic GPCRs, we observed the effect of berbamine on histamine H1 receptor (H1R), histamine H4 receptor (H4R), MrgprC11, MrgprX4, PAR2, and TGR5.
(§2) Figure 3 Effects of berbamine on the activity of other pruritogenic GPCRs: (A,B) Effect of berbamine on histamine 1 receptor (H1R) and histamine 4 receptor (H4R). H1R- and H4R-expressing HEK293T cells were pretreated with 30 μM BBM for 10 min prior to 100 μM histamine treatment. […] (C) Effect of berbamine on PAR2. HT29 cells were pretreated with BBM for 10 min prior to 30 μM PAR2-AP treatment. […] (D) Effect of berbamine on MrgprC11. MrgprC11-expressing HEK293T cells were pretreated with BBM for 10 min prior to 100 μM […] treatment. (E) Effect of berbamine on MrgprX4. MrgprX4-expressing HEK293T cells were pretreated with BBM for 10 min prior to 80 μM DCA treatment. (F) Effect of berbamine on TGR5. TGR5 activity was measured using a YFP fluorescence quenching assay. CHO-K1 cells coexpressing TGR5 and a halide sensor YFP were pretreated with BBM and 80 μM DCA for 10 min prior to I^- treatment. Results were summarized as means ± S.E. (n = 6). NTC, nontransfected cells.
(§3) Intracellular calcium levels were measured using a Fluo-4 NW calcium assay kit (Invitrogen, Carlsbad, CA) as per the manufacturer’s protocol in HEK293T and HT29 cells. […]

[2] = target: T2, PAR2 (Homo sapiens, UniProt P55085); test: PAR2-AP-induced activation of PAR2 in HT29 cells (calcium); assay type: cell-based; conditions: 30 μM compound, 10 min prior to 30 μM PAR2-AP
T2 construct: endogenous in cells; host or cells: HT29
T2 sequence (P55085 26-397): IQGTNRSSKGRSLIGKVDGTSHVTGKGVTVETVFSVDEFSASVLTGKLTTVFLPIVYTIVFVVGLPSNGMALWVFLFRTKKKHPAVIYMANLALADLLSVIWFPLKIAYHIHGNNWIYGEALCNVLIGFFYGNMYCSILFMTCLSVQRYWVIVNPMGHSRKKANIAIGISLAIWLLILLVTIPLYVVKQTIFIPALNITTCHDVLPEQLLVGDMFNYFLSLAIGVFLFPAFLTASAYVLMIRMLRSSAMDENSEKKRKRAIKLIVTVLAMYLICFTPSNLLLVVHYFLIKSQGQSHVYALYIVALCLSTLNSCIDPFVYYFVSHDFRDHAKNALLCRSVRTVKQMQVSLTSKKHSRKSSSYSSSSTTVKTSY
Method: as §1, §2, §3

[3] = target: T3, TGR5 (Homo sapiens, UniProt Q8TDU6); test: TGR5 activity by YFP fluorescence quenching assay in CHO-K1 cells; assay type: cell-based; conditions: 30 μM with 80 μM DCA for 10 min
T3 construct: expressed in transfected cells; host or cells: CHO-K1
T3 sequence (Q8TDU6 1-330): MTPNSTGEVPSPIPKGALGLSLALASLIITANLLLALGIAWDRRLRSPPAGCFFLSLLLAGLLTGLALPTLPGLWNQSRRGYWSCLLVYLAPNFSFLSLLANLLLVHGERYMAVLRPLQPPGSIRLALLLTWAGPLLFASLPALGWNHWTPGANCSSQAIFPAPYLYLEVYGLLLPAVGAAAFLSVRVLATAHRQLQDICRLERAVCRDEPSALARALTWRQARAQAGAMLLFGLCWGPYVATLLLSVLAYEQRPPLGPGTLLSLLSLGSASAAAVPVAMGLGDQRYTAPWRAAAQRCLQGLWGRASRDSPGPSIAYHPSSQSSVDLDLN
Method: as §2
All modulators were dissolved in DMSO, and cells were treated with a final concentration of 1% DMSO.

[4] = tested on: ERK1/2 phosphorylation through MrgprA3; test: Immunoblot of ERK1/2 phosphorylation in HEK293T cells expressing MrgprA3; assay type: cell-based, mouse; conditions: HEK-MrgprA3 cells, 30 μM BBM for 10 min prior to CQ
[5] = tested on: histamine-induced itch; test: Histamine-induced pruritus in mice (scratching bouts); assay type: in vivo, BALB/c mice; conditions: 30 mg/kg i.p.
Method: (§4) To investigate the antipruritic effect of berbamine, we observed the effect of berbamine on pruritogen-induced scratching behavior in BALB/c mice. Mice were transferred to clear cages and treated with berbamine intraperitoneally after a 30 min acclimatization period. Mouse behavior was recorded for 30 min right after the subcutaneous injection of pruritogens to the nape 30 min after berbamine treatment (Figure 7A). […] We further investigated the effect of berbamine on pruritus caused by other pruritogens.
(§5) Figure 7 Effect of berbamine on acute pruritogen-induced pruritus in mice: (A) Scheme of acute pruritogen-induced pruritus mouse model. […] Statistical significance of differences between each group and CQ group was assessed using one-way ANOVA with Tukey’s post hoc test. * p < 0.05, ** p < 0.01, *** p < 0.001. […] Statistical significance of differences was determined using Student’s t-test. […]
(§6) […] six-week-old BALB/c male mice were purchased from DBL (Chungcheong-do, Republic of Korea), and an additional 1 week was given for accommodation. […] After 30 min, pruritogen compounds (i.e., CQ, histamine, PAR2-AP, and DCA) were subcutaneously administered into the nape, and scratching bouts were recorded for 30 min. […] The total number of scratching bouts was counted by recording the number of scratching bouts in the recorded video over 30 min of observation time.

[6] = tested on: DCA-induced itch; test: DCA-induced pruritus in mice (scratching bouts); assay type: in vivo, BALB/c mice; conditions: 30 mg/kg i.p., DCA 50 μg/50 μL
Method: as §4, §5, §6

T1 sequence (P35367 whole entry, species assumed): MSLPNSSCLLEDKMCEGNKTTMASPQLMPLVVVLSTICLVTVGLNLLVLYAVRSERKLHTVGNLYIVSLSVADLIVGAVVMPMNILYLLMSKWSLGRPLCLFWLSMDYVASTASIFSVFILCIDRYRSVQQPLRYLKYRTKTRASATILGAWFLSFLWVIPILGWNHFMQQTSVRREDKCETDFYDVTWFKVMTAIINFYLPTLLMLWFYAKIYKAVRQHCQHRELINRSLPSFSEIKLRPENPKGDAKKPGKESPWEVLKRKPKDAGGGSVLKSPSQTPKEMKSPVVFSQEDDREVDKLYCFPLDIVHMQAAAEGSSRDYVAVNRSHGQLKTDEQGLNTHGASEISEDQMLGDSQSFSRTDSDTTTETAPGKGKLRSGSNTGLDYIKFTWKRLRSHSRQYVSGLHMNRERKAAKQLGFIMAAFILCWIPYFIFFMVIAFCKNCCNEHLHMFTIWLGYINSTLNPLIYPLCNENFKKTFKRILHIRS

COc1cc2c3cc1Oc1c(OC)c(OC)cc4c1[C@@H](Cc1ccc(O)c(c1)Oc1ccc(cc1)C[C@@H]3N(C)CC2)N(C)CC4 [berbamine]
effect on histamine-induced activation of H1R [1]: did not affect
effect on PAR2-AP-induced activation of PAR2 [2]: did not affect
effect on DCA-induced activation of TGR5 [3]: did not alter
effect on CQ-induced ERK1/2 phosphorylation through MrgprA3 [4]: significantly reduced
effect on total scratching bouts induced by histamine [5]: no significant effect
effect on total scratching bouts induced by DCA [6]: no significant effect
